Values after ≈ are worked out from the molar mass of the structure shown. Structures can show the parent of a compound that is named as a salt. Where two headings read alike, the source gives them in different places.
What was measured:
[1] = test system: human blood platelets in platelet-rich-plasma (ADP-induced aggregation); assay: In vitro inhibition of ADP-induced human platelet aggregation (aggregometer method of Born); assay type: cell-based
Description: The aggregometer method of Born, G. V. R., J. Physiol., (London), 162, 67-68, (1962) as modified by Mustard, J. F., et al., J. Lab. Clin. Med., 64, 548-599, (1964) was used to assess the in vitro activity of the various compounds as to the inhibition of adenosine diphosphate (ADP) and collagen-induced platelet aggregation. The human volunteer donor's arm is cleansed with 70% ethyl alcohol. A sterile 20 ml syringe and needle are used to withdraw 20 ml of blood. The blood is immediately added to a test tube containing 3.8% sodium citrate to prevent clotting (1 part citrate to 9 parts blood).
Platelet rich plasma (PRP) was separated by centrifugation for 10 minutes at 1000 rpm (140 g) from citrated (3.8%) human blood. All glassware used for preparation of PRP is silicon treated. ADP in final concentration of 0.5 mcg/mL or 0.05 mL of a collagen suspension prepared according to the method described by Evans, G., et al., J. Exp. Med., 128, 877-894, (1968) was used to induce aggregation. The various compounds tested were dissolved in dimethylsulfoxide (DMSO) so that 5 mcl added to the platelet rich plasma would yield the desired test concentration. Vehicle control trials were done and compared with aggregation induced in platelet rich plasma containing various concentrations of the test compounds. Dose response curves were obtained and Inhibitor Concentration (IC50) values calculated.
The target compounds were evaluated as inhibitors of ADP-induced aggregation of human blood platelets in platelet-rich-plasma (PRP) in vitro.

[2] = Aqueous solubility; assay type: physicochemical; conditions: water
[3] = 0.05 h, ADP 0.5 mcg/mL, human PRP, standard protocol: about 3 minutes incubation prior to agonist, read-out: IC50 vs ADP in human PRP

Structure (SMILES)	IC50 [1, 3] [µg/mL]	solubility [2] [µg/mL]	IC50 ([1]; Homo sapiens, incubation with PRP for about 15 minutes prior to adding ADP, read-out: observed IC50, ADP-induced aggregation) [µg/mL]	IC50 ([1]; Homo sapiens, read-out: concentration providing 50% inhibition of ADP-induced aggregation, incubation with PRP for about 3 minutes prior to addition of the agonist) [µg/mL]
O=C(NCCCOc1ccc2nc3[nH]c(=O)[nH]c3cc2c1)N1CCN(Cc2cccs2)CC1 [Cmpd 7s, N-[3-(2,3-dihydro-2-oxo-1H-imidazo[4,5-b]quinolin-7yloxy)propyl]-4-[(2-thienyl)methyl)-1-piperazinecarboxamide dihydrochloride ethanol solvate]	0.09	> 10000	–	–
O=C(NCCCOc1ccc2nc3[nH]c(=O)[nH]c3cc2c1)N1CCN(Cc2ccsc2)CC1 [Cmpd 7t, N-3-(2,3-dihydro-2-oxo-1H-imidazo[4,5-b]quinolin-7yloxy)propyl]-4-[(3-thienyl)methyl)-1-piperazinecarboxamide dihydrochloride]	0.15	3000	–	–
O=C(NCCCOc1ccc2nc3[nH]c(=O)[nH]c3cc2c1)N1CCN(CC2CCCCCC2)CC1 [Cmpd 7g, 4-(Cycloheptylmethyl)-N-[3-(2.3-dihydro-2-oxo-1H-imidazo[4,5-b]quinolin-7yloxy)propyl]-1piperazinecarboxamide dihydrochloride]	0.03	2000	–	–
Cl.O=C(NCCCOc1ccc2nc3[nH]c(=O)[nH]c3cc2c1)NC1CCCCC1 [Cmpd 7c, N-Cyclohexyl-N'-[3-[(2,3-dihydro-2-oxo-1H-imidazo[4,5-b]quinolin-7-yl)oxy]propyl]urea hydrochloride]	0.3	< 10000	–	–
O=C(NCCCOc1ccc2nc3[nH]c(=O)[nH]c3cc2c1)N1CCN(CC2CCCCO2)CC1 (stereo not drawn) [Cmpd 7j, N-[3-(2,3-dihydro-2-oxo-1H-imidazo[4,5-b]quinolin-7yloxy)propyl-4-(tetrahydro-2H-pyran-2-yl)methyl]-1-piperazinecarboxamide dihydrochloride ethanol solvate]	0.09	> 20000	–	–
CN(C(=O)NCCCOc1ccc2nc3[nH]c(=O)[nH]c3cc2c1)C1CCCCC1 [Cmpd 7b, N-Cyclohexyl-N'-[3-[(2,3-dihydro-2-oxo-1H-imidazo[4,5-b]quinolin-7-yl)oxy]propyl]-N-methylurea]	0.04 (≈ 0.101 µM)	< 10000	–	–
O=C(CCCOc1ccc2nc3[nH]c(=O)[nH]c3cc2c1)N1CCN(CC2CCCCC2)CC1 [formula (3) compound, reference compound]	–	–	0.041	0.182
Cl.Cl.O=C(NCCCOc1ccc2nc3[nH]c(=O)[nH]c3cc2c1)N1CCN(CCC2CCCCC2)CC1 [Cmpd 7i, 4-(Cyclohexylethyl)-N-[3-(2,3-dihydro-2-oxo-1H-imidazo [4,5-b]quinolin-7yloxy)propyl]-1-piperazinecarboxamide dihydrochloride]	0.04	500	–	–
Cl.Cl.O=C(NCCCOc1ccc2nc3[nH]c(=O)[nH]c3cc2c1)N1CCN(c2ncccn2)CC1 [Cmpd 7v, N-[3-(2,3-dihydro-2-oxo-1H-imidazo[4,5-b]quinolin-7yloxy)propyl]-4-(2-pyrimidinyl)-1-piperazinecarboxamide dihydrochloride]	0.17	100	–	–
Cl.Cl.O=C(NCCCOc1ccc2nc3[nH]c(=O)[nH]c3cc2c1)N1CCN(CC2CCCC2)CC1 [Cmpd 7h, 4-(Cyclopentylmethyl)-N-[3-(2,3-dihydro-2-oxo-1H-imidazo[4,5-b]quinolin-7yloxy)propyl]-1-piperazinecarboxamide dihydrochloride]	0.05	700	–	–
CCOC(=O)NCCCOc1ccc2nc3[nH]c(=O)[nH]c3cc2c1 [Cmpd 7a]	0.035 (≈ 0.106 µM)	< 10000	–	–
O=C(NCCCOc1ccc2nc3[nH]c(=O)[nH]c3cc2c1)N1CCN(Cc2ccc(Cl)cc2)CC1 [Cmpd 7p, N-[3-(2,3-dihydro-2-oxo-1H-imidazo[4,5-b]quinolin-7yloxy)propyl]-4-(4-chlorophenyl)methyl)-1-piperazine carboxamide dihydrochloride]	0.17	200	–	–
Cl.O=C(NCCCOc1ccc2nc3[nH]c(=O)[nH]c3cc2c1)N1CCC(Cc2ccccc2)CC1 [Cmpd 7e, N-[3-(2,3-dihydro-2-oxo-1H-imidazo[4,5-b]quinolin-7yloxy)propyl]-4-(phenylmethyl)-1-piperidinecarboxamide hydrochloride]	0.08	< 200	–	–
CCC(CC)CN1CCN(C(=O)NCCCOc2ccc3nc4[nH]c(=O)[nH]c4cc3c2)CC1.Cl.Cl [Cmpd 7l, N-[3-(2,3-dihydro-2-oxo-1H-imidazo[4,5-b]quinolin-7yloxy)propyl]-4-(2-ethylbutyl)-1-piperazinecarboxamide dihydrochloride]	0.022	> 20000	–	–
Cl.Cl.O=C(NCCCOc1ccc2nc3[nH]c(=O)[nH]c3cc2c1)N1CCN(CC2CCCCC2)CC1 [Cmpd 7f, 4-(Cyclohexylmethyl)-N-[3-(2,3-dihydro-2-oxo-1H-imidazo[4,5-b]quinolin-7yloxy)propyl]-1-piperazinecarboxamide dihydrochloride]	0.04	> 20000	–	–
CC(C)CN1CCN(C(=O)NCCCOc2ccc3nc4[nH]c(=O)[nH]c4cc3c2)CC1.Cl.Cl [Cmpd 7k, N-[3-(2,3-dihydro-2-oxo-1H-imidazo[4,5-b]quinolin-7yloxy)propyl]-4-(2-methylpropyl]-1-piperazinecarboxamide dihydrochloride]	0.09	> 20000	–	–
O=C(NCCCOc1ccc2nc3[nH]c(=O)[nH]c3cc2c1)N1CCOCC1 [Cmpd 7d]	1.2 (≈ 3.23 µM)	< 10000	–	–
O=C(NCCCOc1ccc2nc3[nH]c(=O)[nH]c3cc2c1)N1CCN(CCc2ccccc2)CC1 [Cmpd 7r, N-[3-(2,3-dihydro-2-oxo-1H-imidazo[4,5-b]quinolin-7yloxy)propyl]-4-[(2-phenylethyl)-1-piperazinecarboxamidedihydrochloride]	0.17	250	–	–
Cl.Cl.O=C(NCCCOc1ccc2nc3[nH]c(=O)[nH]c3cc2c1)N1CCC(N2CCCCC2)CC1 [Cmpd 7u, N-[3-(2,3-dihydro-2-oxo-1H-imidazo[4,5-b]quinolin-7yloxy)propyl]-4-(1-piperidinyl)-1-piperidinecarboxamide dihydrochloride]	5.2	> 20000	–	–
CCCC(CCC)CN1CCN(C(=O)NCCCOc2ccc3nc4[nH]c(=O)[nH]c4cc3c2)CC1.Cl.Cl [Cmpd 7m, N-[3-(2,3-dihydro-2-oxo-1H-imidazo[4,5-b]quinolin-7yloxy)propyl]-4-(2-propylpentyl]-1-piperazinecarboxamide dihydrochloride]	0.07	500	–	–
O=C(NCCCOc1ccc2nc3[nH]c(=O)[nH]c3cc2c1)N1CCN(c2ccccn2)CC1 [Cmpd 7w, N-[3-(2,3-dihydro-2-oxo-1H-imidazo[4,5-b]quinolin-7yloxy)propyl]-4-(2-pyridyl)-1-piperazinecarboxamide dihydrochloride ethanol solvate]	0.38	500	–	–
O=C(NCCCOc1ccc2nc3[nH]c(=O)[nH]c3cc2c1)N1CCN(Cc2ccccc2)CC1 [Cmpd 7o, N-[3-(2,3-dihydro-2-oxo-1H-imidazo[4,5-b]quinolin-7yloxy)propyl]-4-(phenylmethyl)-1-piperazinecarboxamide dihydrochloride ethanol solvate]	0.18	> 20000	–	–
O=C(NCCCOc1ccc2nc3[nH]c(=O)[nH]c3cc2c1)N1CCN(Cc2ccc(F)cc2)CC1 [Cmpd 7q, N-[3-(2,3-dihydro-2-oxo-1H-imidazo[4,5-b]quinolin-7yloxy)propyl]-4-[(4-fluorophenyl)methyl)-1-piperazine carboxamide dihydrochloride ethanol solvate]	0.205	> 20000	–	–
O=C(NCCCOc1ccc2nc3[nH]c(=O)[nH]c3cc2c1)N1CCNCC1 [Cmpd 7n, N-[3-(2.3-dihydro-2-oxo-1H-imidazo4.5-b]quinolin-7yloxy)propyl]-1-piperazinecarboxamide dihydrochloride ethanol solvate]	3.8	< 500	–	–
